Patent US8710232B2, “Imidazole derivatives used as TAFIa inhibitors” (Sanofi-Aventis Deutschland GmbH, priority 2004, dated 2014)

The compounds below were run against TAFIa (Homo sapiens (Human), UniProt Q96IY4) (assay: TAFIa enzyme assay (Actichrome plasma TAFI activity kit)). Conditions: 15 min preincubation at room temperature, read at 420 nm, duplicate determination.
Format: biochemical
Protocol: The prepared substances were tested for TAFIa inhibition using the Actichrome plasma TAFI activity kit from American Diagnostica (Pr. No. 874). This entailed adding 29 μl of assay buffer (20 mM Hepes, 150 mM NaCl, pH 7.4) and 10 μl of TAFIa (American Diagnostica Pr. No. 874TAFIA; […]) to 1 μl of 5 mM DMSO solution of the substance and incubating in a 96 half-well microtiter plate at room temperature for 15 minutes. The enzymic reaction was started by adding 10 μl of TAFIa developer (prediluted 1:2 with water). The time course of the reaction was followed at 420 nm in a microtiter plate reader (SpectraMax plus 384; Molecular Devices) for 15 minutes. The IC50 was calculated from the averaged values (duplicate determination) of serial dilutions of the substance with the aid of the Grafit 4 software (Erithacus Software, UK).

TAFIa, sequence (Q96IY4 115-423): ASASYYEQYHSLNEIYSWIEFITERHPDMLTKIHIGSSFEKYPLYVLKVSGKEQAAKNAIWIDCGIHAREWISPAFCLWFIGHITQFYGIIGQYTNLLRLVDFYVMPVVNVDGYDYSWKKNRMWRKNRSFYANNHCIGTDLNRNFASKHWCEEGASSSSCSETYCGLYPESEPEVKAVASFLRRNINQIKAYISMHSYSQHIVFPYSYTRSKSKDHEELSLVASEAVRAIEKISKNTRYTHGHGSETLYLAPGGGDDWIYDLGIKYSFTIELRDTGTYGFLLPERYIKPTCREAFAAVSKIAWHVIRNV

Row | IC50 [nM] | SMILES
1 | 10500 | Nc1ccc(CC(C(=O)O)c2cn(Cc3ccc(OC(F)(F)F)cc3)cn2)cn1 (stereo not drawn) [Example 25, 3-(6-Aminopyridin-3-yl)-2-[1-(4-trifluoromethoxybenzyl)-1H-imidazol-4-yl]propionic acid]
2 | 23 | Nc1ccc(CC(C(=O)O)c2cn(CC(=O)NC(c3ccccc3)c3ccccc3)cn2)cn1 (stereo not drawn) [Example 10, 3-(6-Aminopyridin-3-yl)-2-{1-[(benzhydrylcarbamoyl)methyl]-1H-imidazol-4-yl}-propionic acid]
3 | 870 | C#CCn1cnc(C(Cc2ccc(N)nc2)C(=O)O)c1 (stereo not drawn) [Example 31, 3-(6-Aminopyridin-3-yl)-2-(1-prop-2-ynyl-1H-imidazol-4-yl)propionic acid]
4 | 1110 | Nc1ccc(CC(C(=O)O)c2cn(Cc3csc4ccc(Cl)cc34)cn2)cn1 (stereo not drawn) [Example 27, 3-(6-Aminopyridin-3-yl)-2-[1-(5-chlorobenzo[b]thiophen-3-ylmethyl)-1H-imidazol-4-yl]-propionic acid]
5 | 21 | Nc1ccc(CC(C(=O)O)c2cn(CCC3CCN(C(=O)CCc4ccccc4)CC3)cn2)cn1 (stereo not drawn) [Example 18, 3-(6-Aminopyridin-3-yl)-2-(1-{2-[1-(3-phenylpropionyl)piperidin-4-yl]ethyl}1H-imidazol-4-yl)propionic acid]
6 | 30 | Nc1ccc(CC(C(=O)O)c2cn(C3CCCCC3)cn2)cn1 (stereo not drawn) [Example 1, 3-(6-Aminopyridin-3-yl)-2-(1-cyclohexyl-1H-imidazol-4-yl)propionic acid]
7 | 1440 | Nc1ccc(CC(C(=O)O)c2cn(Cc3cccc(Oc4ccc(F)cc4)c3)cn2)cn1 (stereo not drawn) [Example 28, 3-(6-Aminopyridin-3-yl)-2-{1-[3-(4-fluorophenoxy)benzyl]-1H-imidazol-4-yl}propionic acid]
8 | 1130 | Nc1ccc(CC(C(=O)O)c2cn(C3CCNCC3)cn2)cn1 (stereo not drawn) [Example 8, 3-(6-Aminopyridin-3-yl)-2-(1-piperidin-4-yl-1H-imidazol-4-yl)propionic acid]
9 | 15 | Nc1ccc(CC(C(=O)O)c2cn(-c3ccc(NC(=O)Nc4ccccc4)cc3)cn2)cn1 (stereo not drawn) [Example 12, 3-(6-Aminopyridin-3-yl)-2-{1-[4-(3-phenylureido)phenyl]-1H-imidazol-4-yl}propionic acid]
10 | 49 | CCCNC(=O)Nc1ccc(-n2cnc(C(Cc3ccc(N)nc3)C(=O)O)c2)cc1 (stereo not drawn) [Example 37, 3-(6-Aminopyridin-3-yl)-2-{1-[4-(3-propylureido)phenyl]-1H-imidazol-4-yl}propionic acid]
11 | 11 | Nc1ccc(CC(C(=O)O)c2cn(CC3CCCN(C(=O)C(c4ccccc4)c4ccccc4)C3)cn2)cn1 (stereo not drawn) [Example 17, 3-(6-Aminopyridin-3-yl)-2-[1-(1-diphenylacetylpiperidin-3-ylmethyl)-1H-imidazol-4-yl]-propionic acid]
12 | 3 | CC1(C)CCC(n2cnc(C(Cc3ccc(N)nc3)C(=O)O)c2)CC1 (stereo not drawn) [Example 33, 3-(6-Aminopyridin-3-yl)-2-[1-(4,4-dimethylcyclohexyl)-1H-imidazol-4-yl]propionic acid]
13 | 16 | Nc1ccc(CC(C(=O)O)c2cn(C3CCCC3)cn2)cn1 (stereo not drawn) [Example 7, 3-(6-Aminopyridin-3-yl)-2-(1-cyclopentyl-1H-imidazol-4-yl)propionic acid]
14 | 439 | Nc1ccc(CC(C(=O)O)c2cn(C3CCN(c4ccccc4)C3=O)cn2)cn1 (stereo not drawn) [Example 9, 3-(6-Aminopyridin-3-yl)-2-[1-(2-oxo-1-phenylpyrrolidin-3-yl)-1H-imidazol-4-yl]propionic acid]
15 | 38 | Nc1ccc(CC(C(=O)O)c2cn(CCC3CCCN(C(=O)CCc4ccccc4)C3)cn2)cn1 (stereo not drawn) [Example 16, 3-(6-Aminopyridin-3-yl)-2-(1-{2-[1-(3-phenylpropionyl)piperidin-3-yl]ethyl}-1H-imidazol-4-yl)propionic acid]
16 | 12 | Nc1ccc(CC(C(=O)O)c2cn(CCC3CCN(C(=O)C(c4ccccc4)c4ccccc4)CC3)cn2)cn1 (stereo not drawn) [Example 13, 3-(6-Aminopyridin-3-yl)-2-{1-[2-(1-diphenylacetylpiperidin-4-yl)ethyl]-1H-imidazol-4-yl}-propionic acid]
17 | 12 | Nc1ccc(CC(C(=O)O)c2cn(CC3CCCCN3C(=O)c3ccccc3)cn2)cn1 (stereo not drawn) [Example 15, 3-(6-Aminopyridin-3-yl)-2-[1-(1-benzoylpiperidin-2-ylmethyl)-1H-imidazol-4-yl]propionic acid]

Row | SMILES | IC50 [nM]
18 | Cc1ccc(S(=O)(=O)Nc2ccc(-n3cnc(C(Cc4ccc(N)nc4)C(=O)O)c3)cc2)cc1 (stereo not drawn) [Example 38] | 50
